From patent US20140364552A1, “AQUEOUS RESIN COMPOSITION COMPRISING FILM-FORMING AID, AND STEEL SHEET SURFACE TREATMENT AGENT CONTAINING THE SAME” (DIC Corporation, priority 2011, published 2014)

Columns and labels:
[1] = Evaluating film-forming property (cracks in cast coating film); assay type: physicochemical
Description: After drying for 24 hours, the film-forming property was evaluated by visual observation based on criteria below. When no crack occurred, the film-forming property was evaluated as “A”, when fine cracks slightly occurred, the film-forming property was evaluated as “B”, and when clear cracks occurred over the entire surface of the coating film, the film-forming property was evaluated as “C”.

[2] = Evaluating alkali resistance of coating film on galvanized steel sheet; assay type: physicochemical
Description: Each of the aqueous resin compositions immediately after preparation was applied on a galvanized steel sheet by using a film applicator so that an amount of application was 0.1 g/100 cm^2 and then dried at 80° C. for 30 seconds to form a test piece. Next, 0.5 mL of a 5% aqueous sodium hydroxyl solution was dropped on the test piece which was then allowed to stand for 30 minutes. After being allowed to stand, the appearance of a coating film in a portion where the liquid adhered was evaluated based on criteria below. When no change occurred in the appearance, alkali resistance was evaluated as “A”; when the coating film was discolored black or dissolved in an area of less than 10%, alkali resistance was evaluated as “B”; when the coating film was discolored black or dissolved in an area of 10% or more and less than 30%, alkali resistance was evaluated as “C”; and when the coating film was discolored black or dissolved in an area of 30% or more, alkali resistance was evaluated as “D”.

[3] = Corrosion resistance, salt spray test JIS Z2371; assay type: physicochemical
Description: Each of the aqueous resin compositions immediately after preparation was applied on a galvanized steel sheet by using a film applicator so that an amount of application was 0.1 g/100 cm^2 and then dried at 80° C. for 30 seconds to form a test piece. According to a salt spray test method described in JIS Z2371, a 5 mass % aqueous sodium chloride solution was sprayed on the test piece at an ambient temperature of 35° C., and a rate of occurrence of white rust after 240 hours was measured and evaluated based on criteria below. In addition, a tape seal was attached to a portion where the aqueous resin composition was not applied (the end surfaces and back surface). When no white rust occurred, corrosion resistance was evaluated as “A”; when white rust occurred in an area of less than 5% of the whole coating area, corrosion resistance was evaluated as “B”; when white rust occurred in an area of 5% or more and less than 20% of the whole coating area, corrosion resistance was evaluated as “C”; and when white rust occurred in an area of 20% or more of the whole coating area, corrosion resistance was evaluated as “D”.

[4] = cited from earlier work

film-forming property (in words) [1]: excellent
alkali resistance of coating film (in words) [2]: excellent
SMILES: CN1CCCC1=O [N-methyl-2-pyrrolidone]
corrosion resistance of coating film (in words) [3]: excellent
toxicity (in words) [4]: problem of toxicity
